# In patent US20100273748A1, “ANTIMICROBIAL THERAPY” (priority 2006, published 2010):
# What was measured:
# Staphylococcus aureus = experiment: Bacterial growth inhibition (turbidity OD600) with or without carbonate; type: cell-based
# E. coli = experiment: Bacterial growth inhibition with or without NaHCO3; type: cell-based
# Group B Strep (GBS) = experiment: Bacterial growth inhibition with or without NaHCO3; type: cell-based; details: 16 uM CRAMP without NaHCO3
# Salmonella = experiment: Bacterial growth inhibition with or without NaHCO3; type: cell-based; details: 16 uM CRAMP without NaHCO3
# antigen presentation = experiment: Antigen presentation in vitro; type: cell-based
# cathelicidin [1] = experiment: qPCR of cathelicidin mRNA in cultured keratinocytes; type: cell-based, human
# Description: Cell culture and stimuli. Human keratinocytes were grown in serum-free EpiLife® cell culture media (Cascade Biologics; Portland, Oreg.) containing 0.06 mM Ca2+ and 1× EpiLife® defined growth supplement (EDGS) at 37° C. under standard tissue culture conditions. Stock cultures were maintained for up to five passages in this media with the addition of 50 U/mL penicillin and 50 μg/mL streptomycin. HaCaT keratinocytes were cultured in DMEM (Sigma, St. Louis, Mo.) with 10% FCS. Cells at 50-70% confluence were stimulated in fresh medium after preincubation with 1,25(OH)2 vitamin D3 (1,25D3; 0.1-100 nM, 4-24 h; Sigma). Alternatively, NHEK were stimulated in the presence of 1,25D3 (0.1-100 nM). Stimuli included TLR2,6 ligands Malp-2 (0.001-0.5 μg/ml; Alexis Biochemicals, Carlsbad, Calif.), FSL-1 (1-2 μg/ml, Invivogen, San Diego, Calif.) and zymosan (50 μg/ml; Invivogen), as well as flagellin (50 ng/ml; Alexis), LPS (1 μg/ml; Sigma), lipoteichoic acid (LTA; 10 μg/ml; Sigma), 19 kDA lipopeptide (10 μg/ml, a kind gift from S. Krutzik, Division of Dermatology, UCLA), CpG DNA (10 μg/ml; Sigma), Ca2+ (1.7 mM), LPS (1 μg/ml; Sigma), TNFα (20 ng/ml; Chemicon Temecula, Calif.) and TGFβ1 (0.1-1 μg/ml; R&D Systems, Minneapolis, Minn.). A TLR2 blocking antibody (αTLR2; clone TL2.1, 5 μg/ml, eBioscience, San Diego, Calif.) was utilized to investigate the role of TLR2 signaling. Furthermore, keratinocytes were pretreated with a vitamin D receptor antagonist (VDR-antagonist ZK159222 Schering AG; 10^-7M) or the CYP inhibitor itraconazole (ITRA; 10^-7M) before stimulation with TGFβ in the presence of 25OH vitamin D3 (25D3, 10 nM, Sigma).
# Real-time RT-PCR (qPCR). RNA was extracted from cells, epidermal constructs or tissue using Trizol® and 1 μg RNA was reverse transcribed using iScript® (BioRad, Hercules, Calif.). Expression of cathelicidin and GAPDH was analysed by real-time RT-PCR. Predeveloped Taqman® assay probes (ABI, Foster City, Calif.) were used for the analyses of the expression of CYP24A1 (24-hydroxylase), CYP27B1 (1α-hydroxylase), CD14, CD36, TLR1, TLR2, TLR4, TLR6 and murine CD14. All analyses were performed in triplicate from 2-5 independent experiments in an ABI Prism® 7000 Sequence Detection System. Fold induction relative to the vehicle treated control in in vitro experiments was calculated using the comparative Ct method, where ΔΔCt is ΔCt(stimulant)-ΔCt(vehicle), ΔCt is Ct(gene)-Ct(GAPDH) and Ct is the cycle at which an arbitrary detection threshold is crossed. For quantification of transcript abundance in tissue samples target gene expression was normalized to GAPDH and compared to non-treated or non-injured skin.
# CYP27B1 = experiment: qPCR of CYP27B1 mRNA in cultured keratinocytes; type: cell-based, human; details: 24 hours, TGF 1 μg/ml, TNFα 20 ng/ml, TLR2 ligand Malp-2
# Description: (§1) Cell culture and stimuli. Human keratinocytes were grown in serum-free EpiLife® cell culture media (Cascade Biologics; Portland, Oreg.) containing 0.06 mM Ca2+ and 1× EpiLife® defined growth supplement (EDGS) at 37° C. under standard tissue culture conditions. Stock cultures were maintained for up to five passages in this media with the addition of 50 U/mL penicillin and 50 μg/mL streptomycin. HaCaT keratinocytes were cultured in DMEM (Sigma, St. Louis, Mo.) with 10% FCS. Cells at 50-70% confluence were stimulated in fresh medium after preincubation with 1,25(OH)2 vitamin D3 (1,25D3; 0.1-100 nM, 4-24 h; Sigma). Alternatively, NHEK were stimulated in the presence of 1,25D3 (0.1-100 nM). […]
# (§2) Real-time RT-PCR (qPCR). […] Expression of cathelicidin and GAPDH was analysed by real-time RT-PCR. […] Fold induction relative to the vehicle treated control in in vitro experiments was calculated using the comparative Ct method, where ΔΔCt is ΔCt(stimulant)-ΔCt(vehicle), ΔCt is Ct(gene)-Ct(GAPDH) and Ct is the cycle at which an arbitrary detection threshold is crossed. For quantification of transcript abundance in tissue samples target gene expression was normalized to GAPDH and compared to non-treated or non-injured skin.
# IL-8 = experiment: qPCR of IL-8 transcript in cultured keratinocytes; type: cell-based, human; details: Malp-2 (0.1 μg ml^−1) only
# Description: as §1, §2
# cathelicidin [2] = experiment: Cathelicidin peptide immunostaining in organotypic epidermal constructs; type: cell-based, human
# From the text: Organotypic culture. Epiderm™ human skin-like tissue constructs were obtained from MatTek (Ashland, Mass.) and cultured according to manufacturer's instructions. […] Skin constructs were cut after stimulation and transferred to Trizol® (Invitrogen, Carlsbad, Calif.) for RNA extraction or immediately frozen in Tissue-Tek® (Sakura, Torrance, Calif.) for immunostaining.
# Immunostaining. After fixation in 2% PFA and subsequent washings in PBS, sections from skin tissue or epidermal constructs were blocked in 3% BSA in PBS for 30 min at RT and stained with anti-cathelicidin LL-37 primary antibody or preimmune serum. After washings in PBS, slides from epidermal constructs were re-probed with a FITC labeled goat anti-chicken antibody. Nuclei were detected with DAPI. After subsequent washings with PBS slides, were mounted in ProLong Anti-Fade reagent (Molecular Probes, Eugene, Oreg.) and evaluated with an Olympus BX41 microscope (Olympus, Melville, N.Y.). Paraffin embedded formalin fixed tissue sections were rehydrated in a series of toluene, ethanol, and PBS. Endogenous peroxidase activity was quenched by 30 min incubation in 0.3% H2O2 in water, and sections microwaved for 4 min in antigen retrieval solution (0.01M citric acid, 0.05M
# cathelicidin promoter = experiment: Cathelicidin (CAMP) promoter luciferase reporter in HaCat keratinocytes; type: cell-based, human
# From the text: Promoter analysis and site directed mutagenesis. […]. Primers were designed to introduce an NheI restriction site at the 5″end and an XhoI restriction site at the 3″end of the amplicon. The amplification product was cloned into the TOPO vector (Invitrogen) and transformed into E. coli TOP10 OneShot competent cells (Invitrogen). After DNA purification using the WizardPLus, SV Miniprep purification system (Promega, Madison, Wis.) the construct was digested with NheI and XhoI and then subcloned into the promoterless pGL3-basic firefly luciferase vector (Promega). […]. The resulting plasmid lacking the VDRE binding site cloned in the pGL3-basic vector was termed pGL-3 1500-VDRE. All resulting constructs were confirmed by sequencing. For transfection HaCat cells were seeded in 24 well plates (BD Biosciences) and used for transfection at 50 to 70% confluence. Cells were transfected with the indicated CAMP reporter plasmids and 0.1 μg of an internal-control Renilla luciferase expression plasmid (pRL-TK; Promega, Madison, Wis.) by using 1.5 μl of transfection reagent Fugene 6 (Roche) according to the manufacturer's instructions. […] Firefly luciferase activity from the CAMP pGL3 reporter vectors and Renilla luciferase activity were measured by the Dual Luciferase Assay system (Promega) in a luminometer (Optocomp I, MGM Instruments, Hamden, Conn.). […]
# acetylated histone H4 = experiment: Histone H4 acetylation in keratinocytes (immunofluorescence, Western blot); type: cell-based, human; details: NHEK stimulated with butyrate or TLR ligand
# Description: Panel a; Immunofluorescence staining of acetylated histone H4 protein in NHEK treated with HDACi in the presence or absence of 1,25D3. […] Panel b: Western blot of acetylated histone 4 from keratinocytes treated with the HDACi butyrate or TLR agonists. […] Bar=30 μM.
# The abundance of acetylated histone was directly measured to confirm the inhibitory effects of butyrate and TSA on HDACs. […] To determine if changes in histone acetylation occur upon stimulation of keratinocytes with TLR ligands NHEK were stimulated with different TLR ligands and histone acetylation was assessed.
# [3] = test system: Staphylococcus aureus mprF; experiment: Radial diffusion assay; type: cell-based
# Description: Sweat collection and processing. Sweat was collected on paper tissues (Kimwipes, Kimberly-Clark, Ga.) from healthy volunteers after exercise. After collection, 20 ml of sweat was centrifuged at 2000 g for 15 min. at 4° C., filtered through a […] (Acrodisc syringe filter, 0.2 mm, low protein binding, Fisher scientific, Tustin, Calif.), and frozen at −80° C. For some experiments sweat was lyophilized to dryness, then suspended in 400 μl of distilled water (DW: cell culture grade, endotoxin free, GibcoBRL, Grand island, NY). For analysis of LL37 processing by sweat, 1.6 nmol of LL-37 synthetic peptide was incubated in 50 ml of sweat for 0, 1, 6, 24 hrs at 37° C. or 4° C. In some experiments proteinase inhibitors including; mixed protease inhibitor cocktail (1tab/10 ml, Roche, Indianapolis, Ind.), […] Bestatin, 10 mg/ml E-64, 10 mg/ml Aprotinin, (Sigma, St Louis, Mo.); 100 mM AEBSF, 100 mM Neutrophil elastase inhibitor (NEI) or 100 mM leukocyte elastase inhibitor (LEI) (Calbiochem, San Diego, Calif.) were added during incubation. After incubation, 2 ml was assayed by radial diffusion assay to determine antibacterial activity. For analysis by HPLC 32 nmoles LL-37 was incubated in 100u1. To control for potential contamination from paper tissues, parallel processing was done on tissues soaked in phosphate-buffered saline (PBS:137 mM NaCl, 2.7 mM KCL, 4.3 mM Na2HPO4-H2O, 1.4 mM KH2PO4, pH 7.4). No antimicrobial activity was detectable in these preparations. Protein concentrations were evaluated by BCA assay (protein assay reagent, Pierce, Rockford, Ill.) or Bradford protein assay (Bio-Rad, Hercules, Calif.) according to manufacture's instructions. Human tissue and blood collection was approved by the UCSD Human Research Protection Program.
# Antimicrobial assays. For screening of antimicrobial activity of HPLC fractions, radial diffusion assay was used. Lyophilized HPLC fractions were dissolved in DW (GibcoBRL, Grand Island, N.Y.), and tested against Staphylococcus aureus mprF. Thin plates (1 mm) of 1% agarose in 0.5% tryptone containing approximately 1×10^6 cells/ml of S. aureus mprF were used. 1 mm wells were punched in the plates and […] of samples dissolved in tissue culture grade sterile water were loaded in each well.
# [4] = test system: wild-type S. aureus (clinical isolate); experiment: Radial diffusion assay; type: cell-based
# [5] = test system: enteroinvasive E. coli 029; experiment: Radial diffusion assay; type: cell-based
# C. albicans = experiment: Liquid assay, minimum fungicide concentration; type: cell-based, Candida albicans
# Description: Action against the C. albicans was determined in Dixon medium (0.6% Peptone, 4% Malt Extract, 1% Glucose, 0.1% Ox Bile, 1% Tween-80) in sterile 96-well microtiter plates (Corning Inc., Corning, N.Y.) at a final volume of 50 ml. […] Microtiter plates were incubated at 37° C. for 24 h with peptides, then plated on Dixon agar to determine the MFC (minimum fungicide concentration).
# [6] = test system: Group A Streptococcus (NZ131)
# Description: Solution killing was done in 10% TSB in 10 mM PB (TSB=30 gm/L Tryptic Soy Broth, Sigma, St Louis Mo.; 20×PB=27.6 g/L NaH2PO4-H2O, 53.65 g/L Na2HPO4-7H2O, pH 7.4). Bacteria in log-phase growth were suspended to 1×10^6 cells/ml, peptide added and incubated at 37° C. for 2 hr. Bacteria were then plated on TSB agar (TSB, Bactoagar 13 g/L, Becton Dickinson, Sparks Md.) for direct colony count and determination of CFU.
# Activity against Group A Streptococcus (NZ131) was done only in solution assay as described.
# [7] = 16 uM CRAMP without 50 mM NaHCO3
substance,measurement,setting,value
CRAMP,susceptibility to peptide,Staphylococcus aureus; 16 uM CRAMP with 50 mM NaHCO3,became susceptible
same,susceptibility to peptide,Staphylococcus aureus; [7],resistant
same,change of minimal inhibitory concentration (MIC) by NaHCO3,"Staphylococcus aureus; 20% TSB, 1 mM NaH2PO4, with or without 50 mM NaHCO3, pH 7.4",greatly reduced
same,susceptibility to peptide,E. coli; 16 uM CRAMP with 50 mM NaHCO3,became susceptible
same,susceptibility to peptide,E. coli; [7],resistant
same,susceptibility to peptide,Group B Strep (GBS),susceptible even without NaHCO3
same,susceptibility to peptide,Salmonella,susceptible even without NaHCO3
same,antigen presentation in vitro,antigen presentation,inhibits antigen presentation in vitro
Malp-2,cathelicidin transcript abundance,cathelicidin [1]; Malp-2 (0.1 μg ml^−1) alone,has no effect
same,cathelicidin response to Malp-2,"cathelicidin [1]; keratinocyte monolayers in high calcium (1.7 mM), no 1,25D3","did not respond to TLR2,6 activation by Malp-2"
same,cathelicidin expression in response to TLR ligand,"cathelicidin [1]; keratinocytes pretreated with 1,25D3 0.1 nM 24 hours, then TLR ligand 24 hours",responded to Malp-2
same,CYP27B1 expression,CYP27B1,could be induced
same,IL-8 expression,IL-8,increased when stimulated with only Malp-2
same,cathelicidin peptide response to Malp-2,"cathelicidin [2]; Malp-2 0.1 μg/ml with 1,25D3 (100 nM)",did after its addition
same,cathelicidin peptide response to Malp-2,"cathelicidin [2]; Malp-2 0.1 μg/ml, absence of 1,25D3","did not respond to Malp-2 in the absence of 1,25D3"
same,cathelicidin promoter activity,"cathelicidin promoter; Malp-2 0.1 μg/ml in the presence of 1,25D3 (100 nM), construct including the VDRE",responsive to Malp-2
same,cathelicidin promoter activity,"cathelicidin promoter; absence of 1,25D3 or the VDRE",no significant effect
same,acetylation of histone H4,acetylated histone H4,also increased histone acetylation
SSLLEKGLDGAKKAVGGLGKLGKDAVEDLESVGKGAVHDVKDVLDSV [DCD],"Radial Diffusion Assay, minimal inhibitory concentration (MIC), S. aureus mprF (head printed truncated: aureus cF)",[3],4 μm
same,"Radial Diffusion Assay, minimal inhibitory concentration (MIC), S. aureus (wt)",[4],4 μm
same,"Radial Diffusion Assay, minimal inhibitory concentration (MIC), E. coli (O29))",[5],4 μm
same,"Liquid Assay, minimal concentration required to kill C. albicans ATCC 14053 (head printed truncated: albicans CC 14053)",C. albicans,7 μm
same,"Liquid Assay, minimal concentration required to kill GAS (NZ131)",[6],4 μm
